From patent publication US20190231893A1, “METHODS OF TREATING CANCER” (priority 2017, published 2019) come the findings set out here.

In test [1] the test system is A431 cells. Description: Drug matrix screen: siRNA knockdown and cell viability. It is filed as cell-based. To be noted: for shift in drug sensitivity (cell viability) upon siRNA knockdown of γ-tubulin ring complex genes: knockdown of GCNT1, TUBGCP4 and TUBGCP6 relative to CON3 siRNA control, at drug concentrations yielding <60% cell viability; for drug sensitivity / cell killing upon EGFR siRNA knockdown: EGFR siRNA control. As to the method:
An siRNA library was produced based targeting genes identified from methods listed above. The siRNA panel in 96 well plates (Dharmacon) was diluted to 66 nM/15 μl was combined with equal volume of RNAiMax Lipofectamine (Life Technologies) diluted to 0.15×/15 μl, pipette mixed thoroughly then allowed to incubate for 15 minutes at room temperature before addition of 30 μl/well to A431, U87MG_del, and U87MG_EGFR cell lines seeded in 96 well plates at 4500 cells/70 μl/well. Plates were incubated in 37° C. 5% CO2 incubator for 18-24 hours prior to addition of 10 μl drug (MMAE: 1.5 nM final conc., depatuxizumab mafodotin: 18 nM final conc.) or vehicle (phosphate-buffered saline, PBS). Cell viability was assessed post 48 hour drug treatment via Cell Titer Glo (Promega) for A431 cell line or SRB cell stain assay (Sulforhodamine B assay and Chemosensitivity, Voigt et al.) for U87MG_del2.7 and U87MG_EGFR cell lines following recommended protocols with the following exception: media was aspirated off Cell Titer Glo (CTG) plates and 100 μl 1:5 diluted CTG in PBS added per well, covered with foil, rotated to mix 15 minutes prior to reading on Victor chemilluminescent reader. The assay was performed using triplicate plates per drug/vehicle as well as last row of plate contained control siRNA CON3 incubated with vehicle to control for any plate effect. Each plate also contained a row of positive and negative siRNA controls treated with drug for normalization of effects of siRNA KD within and across plates. Effect of siRNA KD assessed via combination of triplicate reactions per siRNA/drug normalized to CON3 siRNA/PBS control and then normalized to CON3 siRNA/drug to determine shift to drug with siRNA KD.
A protocol similar to high-throughput screen was used, except siRNA was loaded in a 3×6 well matrix in a 96 well plate with the following siRNAs (CON3, GCNT1, TUBGCP4, TUBGCP6) per quarter plate. EGFR siRNA was loaded in exterior rows as a control. Drug was diluted to 5 serial-5 dilutions (MMAE, Vincristine, Paclitaxel) or 5 serial 3-dilutions (depatuxizumab mafodotin) along with no drug control and added to triplicate wells (starting concentrations MMAE: 100 nM; Vincristine: 2000 nM; Paclitaxel: 2000 nM; depatuxizumab mafodotin: 99 nM).

Test [2] relates to glioblastoma with EGFR amplification. The test can be described thus: Phase 1 study M12-356 (NCT01800695), tumor response. It is filed as in vivo, human. To be noted: patients with EGFR-amplified rGBM; FIG. 1. The method, then: In a Phase 1 study (M12-356, NCT01800695) of depatuxizumab mafodotin in patients with newly diagnosed glioblastoma (nGBM) and recurrent glioblastoma (rGBM) with EGFR amplification, responses in patients with rGBM correlated with EGFR amplification in pre-treatment, archival tumor tissue. Gene amplification was determined by fluorescence in situ hybridization (FISH). Two probes were used: locus-specific EGFR probe and chromosome enumeration probe (CEP) 7. FIG. 1 illustrates change in tumor size in patients with EGFR-amplified rGBM.
Tumor samples for study were from biopsies taken prior to entry onto depatuxizumab mafodotin trial M12-356 (NCT01800695). M12-356 is an open-label, phase 1, 3-arm study: Arm A (depatuxizumab mafodotin+radiation/temozolomide (TMZ) in newly diagnosed GBM; Arm B (depatuxizumab mafodotin+TMZ in newly diagnosed GBM as adjuvant therapy, or in recurrent GBM); and Arm C (depatuxizumab mafodotin monotherapy in recurrent GBM). Arms B and C had and expansion cohort in subjects with centrally confirmed EGFR amplified recurrent GBM.

“Also recorded” adds a separate entry of the source. Square brackets hold non-standard residues; d marks the D form. Peptide text beside a SMILES is read from it. * marks the point of attachment. Dolaproine = CO[C@@H]([C@@H]1CCCN1)[C@@H](C)C(=O)O; Dil = CC[C@H](C)[C@H](NC)[C@@H](CC(=O)O)OC; X1 = C[C@@H](N*)[C@@H](O)c1ccccc1; NMeV = CN[C@H](C(=O)O)C(C)C

With `CC[C@H](C)[C@@H]([C@@H](CC(=O)N1CCC[C@H]1[C@H](OC)[C@@H](C)C(=O)N[C@H](C)[C@@H](O)c1ccccc1)OC)N(C)C(=O)[C@@H](NC(=O)[C@@H](NC)C(C)C)C(C)C` [MMAE, monomethyl auristatin E] (H-[NMeV]V[Dil][Dolaproine]-X1), the “shift in drug sensitivity (cell viability) upon siRNA knockdown of γ-tubulin ring complex genes” value (“shift in drug sensitivity” for short) in test [1] (FIG. 3) is given as “impacted sensitivity; also recorded: more sensitive; also recorded: increased sensitivity”.
On to `CC(=O)O[C@H]1C(=O)[C@@]2(C)[C@H]([C@H](OC(=O)c3ccccc3)[C@]3(O)C[C@H](OC(=O)[C@H](O)[C@@H](NC(=O)c4ccccc4)c4ccccc4)C(C)=C1C3(C)C)[C@]1(OC(C)=O)CO[C@@H]1C[C@@H]2O` [Paclitaxel], for which the “shift in drug sensitivity” value in test [1] (FIG. 3) is on record as “no additional shift in sensitivity”.
Take `CC[C@]1(O)C[C@H]2CN(CCc3c([nH]c4ccccc34)[C@@](C(=O)OC)(c3cc4c(cc3OC)N(C=O)[C@H]3[C@@](O)(C(=O)OC)[C@H](OC(C)=O)[C@]5(CC)C=CCN6CC[C@]43[C@@H]65)C2)C1` [Vincristine]: the “shift in drug sensitivity” value in test [1] (FIG. 3) is on record as “increased sensitivity”; in test [1] (FIG. 3, listed as vincristine) it was “impacted sensitivity; also recorded: more sensitive”.
In the case of depatuxizumab mafodotin, the “drug sensitivity / cell killing upon EGFR siRNA knockdown” value in test [1] (FIG. 3) is “loss of drug sensitivity”; in test [1] (FIG. 3, listed as depatux-m), “abrogated drug internalization and cell killing”. The “shift in drug sensitivity” value is given as “increased sensitivity” in test [1] (FIG. 3) and “impacted sensitivity; also recorded: more sensitive; also recorded: sensitization” in test [1] (FIG. 3, listed as depatux-m). Also, in test [2], the “clinical response (change in tumor size)” value was “not all patients with EGFR amplification responded”.
